CC1(C)C2CCC1(CS(=O)(=O)O)C(=O)C2 (stereo not drawn)
solubility (mole fraction)
Conditions | in acetyl acetate | in methyl acetate
305.7 K | 0.099 | 0.0236
310.6 K | 0.122 | 0.0278
313.7 K | – | 0.0316
315.1 K | 0.134 | 0.0339
317.4 K | 0.15 | –
320.1 K | – | 0.0409
321.4 K | 0.161 | 0.039
324.9 K | 0.173 | 0.0459
328.9 K | 0.179 | –
329.1 K | – | 0.0546
331.7 K | 0.181 | –
334.6 K | – | 0.0726
339.1 K | – | 0.0906

— BigSolDB 2.1
